Reference: ChEMBL document CHEMBL1201862, “PubChem BioAssay data set” (2004)
Active and inactive are the calls of the source.

What was measured:
[1] = molecular target: T1, Heat shock 70 kDa protein 1A (Homo sapiens, UniProt P0DMV8); test: small-molecule inhibition of Hsp70 – biochemical, TR-FRET (AID 786)
[2] = molecular target: T1, Heat shock 70 kDa protein 1A; test: small molecules displacing fluorescent ligand from Hsp70 – biochemical, fluorescence polarization, primary screen (AID 583)
[3] = Luminescence Cell-Based Dose-Confimation HTS to Identify Inhibitors of 5'UTR Stem-Loop Driven Alpha-Synuclein mRNA Translation in H4 Neuroglioblastoma Cells. [Related pubchem assays: 1827 (Project Summary), 1813 (Primary HTS)]; format: functional
[4] = molecular target: T2, Neuropeptide Y receptor type 1 (Homo sapiens, UniProt P25929); format: functional;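 note: HEK293 cells with a CNG channel challenged with NPY then isoproterenol; potency as antagonist that reverses NPY suppression of cAMP signal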
T2 sequence (P25929 whole entry): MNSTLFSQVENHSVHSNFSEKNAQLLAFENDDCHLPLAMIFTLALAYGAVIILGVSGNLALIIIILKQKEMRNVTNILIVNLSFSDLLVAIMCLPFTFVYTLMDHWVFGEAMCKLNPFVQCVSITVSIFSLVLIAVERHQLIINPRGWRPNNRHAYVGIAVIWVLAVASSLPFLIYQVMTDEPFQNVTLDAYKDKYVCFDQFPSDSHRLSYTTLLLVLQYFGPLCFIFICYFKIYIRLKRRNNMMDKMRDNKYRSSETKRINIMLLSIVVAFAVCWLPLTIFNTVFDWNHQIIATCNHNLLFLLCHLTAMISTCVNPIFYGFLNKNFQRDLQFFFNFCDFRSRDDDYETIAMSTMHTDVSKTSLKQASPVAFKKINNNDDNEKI

[5] = molecular target: T3, Neuropeptide Y receptor type 2 (Homo sapiens, UniProt P49146); format: functional, cell-based;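 note: HEK293 cells expressing the receptor and a CNG channel; stimulus was NPY near EC95 followed by isoproterenol to raise cAMP; antagonist potency measured as restoring cAMP signal that NPY suppresses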
T3 sequence (P49146 whole entry): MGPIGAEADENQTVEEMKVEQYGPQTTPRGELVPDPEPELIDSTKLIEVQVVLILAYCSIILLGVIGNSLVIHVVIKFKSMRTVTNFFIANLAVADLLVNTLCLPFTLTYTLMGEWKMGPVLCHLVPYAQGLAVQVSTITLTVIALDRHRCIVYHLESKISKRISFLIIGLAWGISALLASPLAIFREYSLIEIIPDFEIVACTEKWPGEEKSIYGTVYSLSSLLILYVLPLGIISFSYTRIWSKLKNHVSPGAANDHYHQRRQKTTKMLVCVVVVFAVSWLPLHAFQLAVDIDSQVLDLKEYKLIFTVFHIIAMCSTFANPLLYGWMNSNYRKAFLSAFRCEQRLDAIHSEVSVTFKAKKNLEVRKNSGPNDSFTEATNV

[6] = molecular target: G2/mitotic-specific cyclin-B1 (Homo sapiens, UniProt P14635); test: Counterscreen assay for inhibitors of Wee1 degradation: dose response cell-based assay to identify inhibitors of cyclin B degradation. [Related pubchem assays: 1410, 1321 ]; format: functional
Chain of G2/mitotic-specific cyclin-B1 (P14635 whole entry): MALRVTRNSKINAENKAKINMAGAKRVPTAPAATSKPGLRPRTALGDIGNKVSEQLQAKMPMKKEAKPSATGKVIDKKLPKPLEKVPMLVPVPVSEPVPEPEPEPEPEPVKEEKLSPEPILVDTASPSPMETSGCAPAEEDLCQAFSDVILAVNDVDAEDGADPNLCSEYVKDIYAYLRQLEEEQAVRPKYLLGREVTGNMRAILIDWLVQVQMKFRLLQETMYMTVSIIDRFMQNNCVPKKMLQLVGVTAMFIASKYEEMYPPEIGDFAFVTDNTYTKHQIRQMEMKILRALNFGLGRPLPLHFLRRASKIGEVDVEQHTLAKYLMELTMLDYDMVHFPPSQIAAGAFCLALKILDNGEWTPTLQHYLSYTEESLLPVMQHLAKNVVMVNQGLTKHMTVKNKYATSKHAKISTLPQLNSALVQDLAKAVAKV

Wee1-like protein kinase = Wee1-like protein kinase (Homo sapiens, UniProt P30291); test: Dose Response Cell-based Assay for Inhibitors of Wee1 Degradation. [Related pubchem assays: 1410, 1321 ]; format: functional
Chain of Wee1-like protein kinase (P30291 whole entry): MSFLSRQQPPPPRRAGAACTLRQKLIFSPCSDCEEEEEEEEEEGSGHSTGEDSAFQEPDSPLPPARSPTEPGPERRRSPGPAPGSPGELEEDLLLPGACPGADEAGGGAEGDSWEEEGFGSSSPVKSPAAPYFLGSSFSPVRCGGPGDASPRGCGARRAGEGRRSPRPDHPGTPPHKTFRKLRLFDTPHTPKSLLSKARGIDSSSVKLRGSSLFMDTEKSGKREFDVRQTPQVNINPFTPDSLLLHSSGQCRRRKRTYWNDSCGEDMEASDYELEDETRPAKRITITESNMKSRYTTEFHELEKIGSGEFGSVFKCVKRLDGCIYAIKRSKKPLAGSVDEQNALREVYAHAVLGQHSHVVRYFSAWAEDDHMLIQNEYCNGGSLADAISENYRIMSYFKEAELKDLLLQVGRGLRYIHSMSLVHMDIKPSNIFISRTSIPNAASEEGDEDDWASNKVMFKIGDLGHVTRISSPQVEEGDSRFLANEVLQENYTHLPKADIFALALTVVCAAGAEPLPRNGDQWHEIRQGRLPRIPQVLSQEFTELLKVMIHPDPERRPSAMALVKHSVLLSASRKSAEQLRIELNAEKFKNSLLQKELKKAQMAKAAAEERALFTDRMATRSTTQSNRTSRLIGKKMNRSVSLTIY

[7] = HEK-293T viability loss after treatment – luminescence, T-cell screen hits, cytotoxicity control for TCR NF-kB inhibitor project, dose response (AID 489026); format: functional, cell-based;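 note: cells exposed to compound about 14 hours before the viability readout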
[8] = antiviral protection against BTV-induced cell death – arbovirus, BSR cells, confirmation (AID 1250); format: functional;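 note: protection from viral cytopathic effect measured as cell viability by ATP luminescence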
H9c2 = test: cells; format: functional, cell-based; conditions: Rattus norvegicus, H9c2, Myocardium;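 note: confirmatory concentration-response retest of ultra-high-throughput screening hits for modulation of myocardial damage; cell death induced by hydrogen peroxide oxidative stress; compound pretreatment for 60 min then peroxide exposure for 2 h; potency is for protecting the cells against peroxide damage rather than for killing them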

T1 sequence (P0DMV8 whole entry): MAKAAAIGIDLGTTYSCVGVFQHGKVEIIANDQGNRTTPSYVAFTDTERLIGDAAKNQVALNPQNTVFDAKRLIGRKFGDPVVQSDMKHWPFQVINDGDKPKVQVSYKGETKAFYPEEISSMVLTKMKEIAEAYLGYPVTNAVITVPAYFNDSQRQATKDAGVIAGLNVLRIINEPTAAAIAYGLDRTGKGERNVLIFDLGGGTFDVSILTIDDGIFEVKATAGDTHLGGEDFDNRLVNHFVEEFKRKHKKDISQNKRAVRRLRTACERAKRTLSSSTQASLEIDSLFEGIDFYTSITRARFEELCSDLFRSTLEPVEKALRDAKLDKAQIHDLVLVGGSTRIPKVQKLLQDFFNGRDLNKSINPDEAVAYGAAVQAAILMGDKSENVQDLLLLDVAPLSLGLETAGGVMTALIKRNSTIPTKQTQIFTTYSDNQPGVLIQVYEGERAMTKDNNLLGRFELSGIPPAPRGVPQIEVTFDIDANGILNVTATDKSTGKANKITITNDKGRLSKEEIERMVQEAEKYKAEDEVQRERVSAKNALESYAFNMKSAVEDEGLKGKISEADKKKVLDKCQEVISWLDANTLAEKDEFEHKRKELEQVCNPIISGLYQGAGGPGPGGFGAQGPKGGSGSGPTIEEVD

Structure (SMILES): CC(C)(C)n1nnnc1C(c1ccc2ncccc2c1)N1CCSCC1 (stereo not given)
- IC50 [1]: > 100 µM (not active)
- IC50 [2]: > 100 µM (not active)

Structure (SMILES): CN(C)c1nc(N)nc(CSc2nnnn2-c2ccc(Cl)cc2)n1
- EC50 [3]: > 100 µM (not active)

Structure (SMILES): O=C(N/N=C/c1ccco1)c1ccccc1OCc1ccc(Br)cc1
- IC50 [4]: 5.34 µM (active)
- IC50 [5]: 9.08 µM (active)

Structure (SMILES): Cc1csc2sc(-c3ccnc(SCC(=O)NCc4ccccc4)n3)c(C)c12
- EC50 [6]: > 49.7 µM (not active)
- EC50 (Wee1-like protein kinase): > 49.7 µM (not active)
- IC50 [7]: > 80 µM (inactive)

Structure (SMILES): COc1ccc(-c2nc(NC(=O)c3ccc(OCC(=O)N4CCOCC4)c(OC)c3)sc2C)cc1
- IC50 [8]: 83.5 µM (active)
- IC50 (H9c2): > 79 µM (inactive)
